Measured values taken from ChEMBL document CHEMBL1201862, “PubChem BioAssay data set” (2004).
Several values for one entry are separate records, joined by “and”; a condition that tells them apart may be missing. Equal values may be shown once. Blank lines part the entries; values can stand above or below the molecule they belong to. Activity calls are given as the source filed them.

Legend:
Format in all cases: functional
[1] = target: T1, Apoptotic protease-activating factor 1 (Homo sapiens, UniProt O14727); assay: SAR analysis of small molecule Activators of Apaf-1 in a Fluorescent assay - set 2.; conditions: read-out: EC50_Mean
T1 sequence (O14727 whole entry): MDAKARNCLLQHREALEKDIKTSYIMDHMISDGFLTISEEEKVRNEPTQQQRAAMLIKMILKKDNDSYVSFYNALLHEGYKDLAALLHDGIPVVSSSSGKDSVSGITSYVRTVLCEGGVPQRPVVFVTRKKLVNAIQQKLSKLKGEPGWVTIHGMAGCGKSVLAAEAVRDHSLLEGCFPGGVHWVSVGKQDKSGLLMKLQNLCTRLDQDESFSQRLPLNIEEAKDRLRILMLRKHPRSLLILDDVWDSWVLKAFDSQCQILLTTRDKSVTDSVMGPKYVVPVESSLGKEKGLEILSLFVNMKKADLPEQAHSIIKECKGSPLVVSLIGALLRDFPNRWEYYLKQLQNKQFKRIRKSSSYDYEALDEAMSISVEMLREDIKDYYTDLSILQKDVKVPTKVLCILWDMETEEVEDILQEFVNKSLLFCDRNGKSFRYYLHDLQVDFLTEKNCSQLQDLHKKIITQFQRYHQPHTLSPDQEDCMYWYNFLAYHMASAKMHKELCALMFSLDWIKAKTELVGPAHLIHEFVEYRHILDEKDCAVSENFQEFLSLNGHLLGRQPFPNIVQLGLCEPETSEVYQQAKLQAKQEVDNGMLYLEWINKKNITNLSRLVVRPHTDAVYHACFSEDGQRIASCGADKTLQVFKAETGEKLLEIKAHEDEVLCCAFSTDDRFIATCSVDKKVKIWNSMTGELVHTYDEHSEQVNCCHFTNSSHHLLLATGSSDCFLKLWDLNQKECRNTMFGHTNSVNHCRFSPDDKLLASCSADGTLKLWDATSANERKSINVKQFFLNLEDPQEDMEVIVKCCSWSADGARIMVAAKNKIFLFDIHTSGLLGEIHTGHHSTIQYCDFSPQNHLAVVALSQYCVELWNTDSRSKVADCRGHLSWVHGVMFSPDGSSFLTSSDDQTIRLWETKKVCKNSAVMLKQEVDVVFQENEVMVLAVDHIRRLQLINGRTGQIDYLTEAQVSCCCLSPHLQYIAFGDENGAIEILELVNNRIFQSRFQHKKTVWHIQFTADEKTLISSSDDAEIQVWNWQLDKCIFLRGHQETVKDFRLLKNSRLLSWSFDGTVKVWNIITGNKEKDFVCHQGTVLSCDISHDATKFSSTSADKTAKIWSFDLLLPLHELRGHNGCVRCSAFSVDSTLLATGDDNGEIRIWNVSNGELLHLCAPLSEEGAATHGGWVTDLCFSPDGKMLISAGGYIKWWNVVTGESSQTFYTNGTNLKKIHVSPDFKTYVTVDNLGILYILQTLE

[2] = target: T1, Apoptotic protease-activating factor 1; assay: SAR analysis of small molecule Activators of Apaf-1 in a Fluorescent assay.; conditions: read-out: EC50_Mean
[3] = target: T1, Apoptotic protease-activating factor 1; assay: activation of Apaf-1 mediated apoptosis – fluorescent, uHTS hits, dose response (AID 588554)
[4] = SAR analysis of small molecule activators of Apaf-1 using a LZ-Caspase-9/Caspase-3 Fluorescent Selectivity assay - Set 2.; conditions: read-out: EC50_Mean
[5] = target: Dual specificity protein kinase CLK2 (Homo sapiens, UniProt P49760)
[6] = target: Dual specificity tyrosine-phosphorylation-regulated kinase 1B (Homo sapiens, UniProt Q9Y463); assay: Navigating the Kinome. Panel member name: DYRK1B
[7] = target: Tyrosine-protein kinase JAK2 (Homo sapiens, UniProt O60674);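 further: JAK2 tested as one member of a kinase panel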
Chain of Tyrosine-protein kinase JAK2 (O60674 whole entry): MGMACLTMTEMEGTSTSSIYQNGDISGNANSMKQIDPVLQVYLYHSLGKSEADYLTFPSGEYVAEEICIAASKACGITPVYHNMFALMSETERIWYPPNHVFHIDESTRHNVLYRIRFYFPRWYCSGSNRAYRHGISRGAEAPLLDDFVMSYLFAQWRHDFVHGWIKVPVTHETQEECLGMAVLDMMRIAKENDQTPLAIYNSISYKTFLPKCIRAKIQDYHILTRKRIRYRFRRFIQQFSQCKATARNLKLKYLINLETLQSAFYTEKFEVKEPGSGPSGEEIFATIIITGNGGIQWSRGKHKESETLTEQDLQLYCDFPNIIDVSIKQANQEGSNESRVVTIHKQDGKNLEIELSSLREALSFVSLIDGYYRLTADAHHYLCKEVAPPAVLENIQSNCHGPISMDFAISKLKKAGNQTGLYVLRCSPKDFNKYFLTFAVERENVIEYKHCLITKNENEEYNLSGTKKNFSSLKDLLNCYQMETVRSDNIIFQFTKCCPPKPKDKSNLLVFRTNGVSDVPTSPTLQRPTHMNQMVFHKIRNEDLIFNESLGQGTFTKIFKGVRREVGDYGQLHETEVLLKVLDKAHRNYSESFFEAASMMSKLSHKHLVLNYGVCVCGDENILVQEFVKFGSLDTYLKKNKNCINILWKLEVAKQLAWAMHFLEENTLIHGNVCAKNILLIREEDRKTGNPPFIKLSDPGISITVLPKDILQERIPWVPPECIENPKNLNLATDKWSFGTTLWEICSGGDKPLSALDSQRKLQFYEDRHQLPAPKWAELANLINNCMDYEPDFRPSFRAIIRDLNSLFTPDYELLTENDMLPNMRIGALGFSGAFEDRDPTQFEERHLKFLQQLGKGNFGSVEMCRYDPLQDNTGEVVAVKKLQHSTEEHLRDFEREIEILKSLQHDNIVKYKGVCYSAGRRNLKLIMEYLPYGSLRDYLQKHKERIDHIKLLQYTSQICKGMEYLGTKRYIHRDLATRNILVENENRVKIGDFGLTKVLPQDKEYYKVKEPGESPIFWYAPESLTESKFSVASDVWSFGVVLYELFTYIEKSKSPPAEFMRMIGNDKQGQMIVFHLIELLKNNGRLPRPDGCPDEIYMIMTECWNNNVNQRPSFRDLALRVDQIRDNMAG

[8] = target: Serine/threonine-protein kinase PAK 4 (Homo sapiens, UniProt O96013);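 further: value obtained within a kinome profiling panel in which PAK4 was one of the panel members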
[9] = target: Serine/threonine-protein kinase TAO1 (Homo sapiens, UniProt Q7L7X3)
[10] = target: Tyrosine-protein kinase Fyn (Homo sapiens, UniProt P06241)
[11] = target: Serine/threonine-protein kinase pim-1 (Homo sapiens, UniProt P11309)
Chain of Serine/threonine-protein kinase pim-1 (P11309 whole entry): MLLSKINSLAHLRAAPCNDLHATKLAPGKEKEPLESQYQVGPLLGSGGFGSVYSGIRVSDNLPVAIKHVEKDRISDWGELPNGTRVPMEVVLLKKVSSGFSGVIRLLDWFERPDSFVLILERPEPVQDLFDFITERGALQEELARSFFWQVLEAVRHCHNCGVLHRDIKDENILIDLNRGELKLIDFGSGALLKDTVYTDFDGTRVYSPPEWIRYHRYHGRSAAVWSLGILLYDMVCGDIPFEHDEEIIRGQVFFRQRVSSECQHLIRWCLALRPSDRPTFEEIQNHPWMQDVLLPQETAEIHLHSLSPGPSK

[12] = target: Inhibitor of nuclear factor kappa-B kinase subunit epsilon (Homo sapiens, UniProt Q14164); assay: Navigating the Kinome. Panel member name: IKBKE
[13] = target: cAMP-dependent protein kinase catalytic subunit PRKX (Homo sapiens, UniProt P51817)
[14] = target: Mitogen-activated protein kinase 14 (Homo sapiens, UniProt Q16539);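 further: part of a kinome-wide panel, MAPK14 entry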
Aurora kinase B = Aurora kinase B (Homo sapiens, UniProt Q96GD4)
[15] = target: Vascular endothelial growth factor receptor 1 (Homo sapiens, UniProt P17948);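 further: measured within a kinome-wide profiling panel, FLT1 as the panel member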
[16] = target: Leukocyte tyrosine kinase receptor (Homo sapiens, UniProt P29376); assay: Navigating the Kinome. Panel member name: LTK
[17] = target: Serine/threonine-protein kinase TBK1 (Homo sapiens, UniProt Q9UHD2); assay: Navigating the Kinome. Panel member name: TBK1
[18] = target: Rho-associated protein kinase 1 (Homo sapiens, UniProt Q13464);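 further: measured within a broad kinome-wide panel profiling many kinases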
[19] = target: Leucine-rich repeat serine/threonine-protein kinase 2 (Homo sapiens, UniProt Q5S007);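 further: value from a broad kinome-wide panel profiling study in which LRRK2 was one of the kinases tested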
[20] = target: Dual specificity protein kinase CLK4 (Homo sapiens, UniProt Q9HAZ1)
[21] = target: Mitogen-activated protein kinase 8 (Homo sapiens, UniProt P45983);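 further: value comes from one member of a kinome-wide kinase profiling panel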
[22] = target: Tyrosine-protein kinase receptor TYRO3 (Homo sapiens, UniProt Q06418);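 further: TYRO3 value obtained as one member of a kinome-wide profiling panel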
[23] = target: Receptor-type tyrosine-protein kinase FLT3 (Homo sapiens, UniProt P36888);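 further: FLT3 was tested as one member of a kinome-wide kinase panel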
[24] = target: Cyclin-dependent kinase 9 (Homo sapiens, UniProt P50750);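 further: value from the CDK9 entry of a kinome-spanning kinase panel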
Aurora kinase A = Aurora kinase A (Homo sapiens, UniProt O14965);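 further: value from the Navigating the Kinome kinase panel profiling, panel entry STK6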
Activin receptor type-1 = Activin receptor type-1 (Homo sapiens, UniProt Q04771); assay: Navigating the Kinome. Panel member name: ACVR1
[25] = target: Glycogen synthase kinase-3 beta (Homo sapiens, UniProt P49841);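 further: value comes from a broad kinome profiling panel, with GSK3B as the panel member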
[26] = target: Dual specificity mitogen-activated protein kinase kinase 1 (Homo sapiens, UniProt Q02750); assay: Navigating the Kinome. Panel member name: MAP2K1
[27] = target: Ribosomal protein S6 kinase alpha-3 (Homo sapiens, UniProt P51812);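 further: measured within a kinome-wide profiling panel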
[28] = target: Tyrosine-protein kinase JAK3 (Homo sapiens, UniProt P52333)
[29] = target: Dual specificity tyrosine-phosphorylation-regulated kinase 1A (Homo sapiens, UniProt Q13627);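 further: measured against DYRK1A as one member of a broad kinome profiling panel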
[30] = target: Hepatocyte growth factor receptor (Homo sapiens, UniProt P08581);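 further: kinase panel profiling across the kinome, with MET as the panel member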
[31] = target: ALK tyrosine kinase receptor (Homo sapiens, UniProt Q9UM73);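 further: ALK tested as one member of a kinase panel screen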
[32] = target: BDNF/NT-3 growth factors receptor (Homo sapiens, UniProt Q16620);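 further: NTRK2 measured as one member of a broad kinome-wide kinase profiling panel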
Chain of BDNF/NT-3 growth factors receptor (Q16620 whole entry): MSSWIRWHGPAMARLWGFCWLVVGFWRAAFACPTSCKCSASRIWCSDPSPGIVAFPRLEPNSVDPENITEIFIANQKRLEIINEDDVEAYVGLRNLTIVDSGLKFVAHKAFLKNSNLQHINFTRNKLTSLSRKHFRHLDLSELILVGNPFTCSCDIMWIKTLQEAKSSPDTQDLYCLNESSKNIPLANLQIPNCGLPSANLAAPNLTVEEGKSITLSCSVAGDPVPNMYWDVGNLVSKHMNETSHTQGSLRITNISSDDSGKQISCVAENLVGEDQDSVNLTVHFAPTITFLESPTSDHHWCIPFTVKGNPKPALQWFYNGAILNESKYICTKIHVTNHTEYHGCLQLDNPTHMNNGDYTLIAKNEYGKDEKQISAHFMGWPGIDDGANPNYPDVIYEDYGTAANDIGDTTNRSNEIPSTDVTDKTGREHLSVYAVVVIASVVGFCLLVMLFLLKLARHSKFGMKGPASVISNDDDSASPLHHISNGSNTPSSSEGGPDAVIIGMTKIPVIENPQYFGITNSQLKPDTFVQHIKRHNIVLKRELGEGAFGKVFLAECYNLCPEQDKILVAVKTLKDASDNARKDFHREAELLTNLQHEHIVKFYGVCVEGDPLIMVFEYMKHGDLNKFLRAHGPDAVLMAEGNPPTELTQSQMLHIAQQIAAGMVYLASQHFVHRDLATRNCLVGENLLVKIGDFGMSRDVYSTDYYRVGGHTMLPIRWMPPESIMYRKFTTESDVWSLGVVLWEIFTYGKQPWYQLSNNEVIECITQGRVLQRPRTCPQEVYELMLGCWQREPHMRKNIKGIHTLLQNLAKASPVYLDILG

[33] = target: Vascular endothelial growth factor receptor 2 (Homo sapiens, UniProt P35968)
[34] = target: Mitogen-activated protein kinase 9 (Homo sapiens, UniProt P45984);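 further: value from a kinome panel profiling assay, MAPK9 panel entry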
[35] = target: Glycogen synthase kinase-3 alpha (Homo sapiens, UniProt P49840);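 further: GSK3A result taken from a broad kinome-wide kinase panel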
[36] = target: Platelet-derived growth factor receptor alpha (Homo sapiens, UniProt P16234); assay: Navigating the Kinome. Panel member name: PDGFRA
[37] = target: Mitogen-activated protein kinase kinase kinase kinase 2 (Homo sapiens, UniProt Q12851);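 further: measured as one member of a kinome-wide kinase panel, with MAP4K2 as the panel entry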
[38] = target: Macrophage colony-stimulating factor 1 receptor (Homo sapiens, UniProt P07333);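 further: value comes from the Navigating the Kinome screening panel, CSF1R member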
Chain of Macrophage colony-stimulating factor 1 receptor (P07333 whole entry): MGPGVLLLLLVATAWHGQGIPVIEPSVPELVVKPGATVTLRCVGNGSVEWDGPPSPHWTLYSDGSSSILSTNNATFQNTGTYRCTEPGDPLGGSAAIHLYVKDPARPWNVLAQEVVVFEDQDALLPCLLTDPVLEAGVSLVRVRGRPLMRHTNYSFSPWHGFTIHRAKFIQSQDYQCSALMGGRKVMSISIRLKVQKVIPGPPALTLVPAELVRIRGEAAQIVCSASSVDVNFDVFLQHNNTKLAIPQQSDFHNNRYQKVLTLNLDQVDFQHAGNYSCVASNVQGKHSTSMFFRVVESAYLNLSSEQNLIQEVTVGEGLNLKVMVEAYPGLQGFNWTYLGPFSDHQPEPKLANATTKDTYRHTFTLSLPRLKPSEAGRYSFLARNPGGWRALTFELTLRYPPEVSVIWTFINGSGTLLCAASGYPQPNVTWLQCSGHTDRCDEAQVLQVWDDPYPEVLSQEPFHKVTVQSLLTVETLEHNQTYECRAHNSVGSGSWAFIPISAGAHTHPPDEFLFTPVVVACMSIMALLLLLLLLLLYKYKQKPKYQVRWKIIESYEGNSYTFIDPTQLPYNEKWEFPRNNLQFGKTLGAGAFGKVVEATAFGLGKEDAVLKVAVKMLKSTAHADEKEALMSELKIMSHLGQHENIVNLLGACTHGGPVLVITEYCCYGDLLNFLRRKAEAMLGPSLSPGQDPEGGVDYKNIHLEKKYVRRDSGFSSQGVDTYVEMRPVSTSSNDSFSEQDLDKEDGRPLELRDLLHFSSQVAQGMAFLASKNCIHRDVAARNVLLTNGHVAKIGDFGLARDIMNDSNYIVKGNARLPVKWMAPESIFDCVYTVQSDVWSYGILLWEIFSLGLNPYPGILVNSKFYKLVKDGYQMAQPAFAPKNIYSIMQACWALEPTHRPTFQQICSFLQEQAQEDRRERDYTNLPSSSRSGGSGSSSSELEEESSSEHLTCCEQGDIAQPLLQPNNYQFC

[39] = target: Calcium/calmodulin-dependent protein kinase type II subunit alpha (Homo sapiens, UniProt Q9UQM7); assay: Navigating the Kinome. Panel member name: CAMK2A
[40] = target: Tyrosine-protein kinase ABL1 (Homo sapiens, UniProt P00519)
[41] = target: High affinity nerve growth factor receptor (Homo sapiens, UniProt P04629);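 further: NTRK1 tested as one member of a kinome-wide profiling panel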
[42] = target: Fibroblast growth factor receptor 1 (Homo sapiens, UniProt P11362)
[43] = target: cAMP-dependent protein kinase catalytic subunit alpha (Homo sapiens, UniProt P17612)
[44] = target: Proto-oncogene tyrosine-protein kinase receptor Ret (Homo sapiens, UniProt P07949);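 further: measured within a kinome-wide profiling panel, RET as the panel member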
Chain of Proto-oncogene tyrosine-protein kinase receptor Ret (P07949 whole entry): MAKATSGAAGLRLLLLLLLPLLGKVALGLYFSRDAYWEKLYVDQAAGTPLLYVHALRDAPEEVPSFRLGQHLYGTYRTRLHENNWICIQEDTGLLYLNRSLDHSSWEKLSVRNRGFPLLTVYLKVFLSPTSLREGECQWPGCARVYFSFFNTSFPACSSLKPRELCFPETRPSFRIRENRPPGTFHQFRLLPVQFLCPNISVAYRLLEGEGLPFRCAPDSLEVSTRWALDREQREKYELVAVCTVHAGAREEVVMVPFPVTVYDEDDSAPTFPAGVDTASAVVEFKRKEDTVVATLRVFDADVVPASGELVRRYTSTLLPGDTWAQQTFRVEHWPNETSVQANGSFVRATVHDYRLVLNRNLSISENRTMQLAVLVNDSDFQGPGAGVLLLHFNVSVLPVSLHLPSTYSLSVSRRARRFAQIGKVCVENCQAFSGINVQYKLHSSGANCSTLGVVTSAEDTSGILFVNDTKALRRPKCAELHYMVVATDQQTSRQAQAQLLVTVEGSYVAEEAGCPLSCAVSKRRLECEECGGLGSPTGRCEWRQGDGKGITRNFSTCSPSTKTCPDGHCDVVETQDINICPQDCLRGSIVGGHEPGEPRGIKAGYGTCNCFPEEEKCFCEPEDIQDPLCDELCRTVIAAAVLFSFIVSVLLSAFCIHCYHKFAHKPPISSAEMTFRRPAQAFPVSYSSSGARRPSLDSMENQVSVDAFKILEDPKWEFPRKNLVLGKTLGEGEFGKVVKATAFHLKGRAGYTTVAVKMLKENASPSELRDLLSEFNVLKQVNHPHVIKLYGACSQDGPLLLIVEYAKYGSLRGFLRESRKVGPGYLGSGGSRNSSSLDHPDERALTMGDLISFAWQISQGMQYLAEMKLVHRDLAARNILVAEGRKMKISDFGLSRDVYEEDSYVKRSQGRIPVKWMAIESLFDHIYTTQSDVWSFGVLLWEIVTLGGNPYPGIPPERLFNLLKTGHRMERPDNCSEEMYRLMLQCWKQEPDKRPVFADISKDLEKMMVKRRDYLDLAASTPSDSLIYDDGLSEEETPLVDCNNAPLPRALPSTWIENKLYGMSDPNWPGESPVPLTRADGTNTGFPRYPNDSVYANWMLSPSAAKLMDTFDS

[45] = target: Cyclin-dependent kinase 7 (Homo sapiens, UniProt P50613);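 further: value comes from a kinome-wide kinase profiling panel in which CDK7 is one member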
[46] = target: Cyclin-dependent kinase 5 (Homo sapiens, UniProt Q00535);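 further: CDK5 measured as one member of a kinase profiling panel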
[47] = target: Insulin-like growth factor 1 receptor (Homo sapiens, UniProt P08069); assay: Navigating the Kinome. Panel member name: IGF1R
[48] = target: Tyrosine-protein kinase BTK (Homo sapiens, UniProt Q06187)
Activated CDC42 kinase 1 = Activated CDC42 kinase 1 (Homo sapiens, UniProt Q07912); assay: Navigating the Kinome. Panel member name: ACK1
[49] = target: Protein kinase C theta type (Homo sapiens, UniProt Q04759); assay: Navigating the Kinome. Panel member name: PRKCQ
Chain of Protein kinase C theta type (Q04759 whole entry): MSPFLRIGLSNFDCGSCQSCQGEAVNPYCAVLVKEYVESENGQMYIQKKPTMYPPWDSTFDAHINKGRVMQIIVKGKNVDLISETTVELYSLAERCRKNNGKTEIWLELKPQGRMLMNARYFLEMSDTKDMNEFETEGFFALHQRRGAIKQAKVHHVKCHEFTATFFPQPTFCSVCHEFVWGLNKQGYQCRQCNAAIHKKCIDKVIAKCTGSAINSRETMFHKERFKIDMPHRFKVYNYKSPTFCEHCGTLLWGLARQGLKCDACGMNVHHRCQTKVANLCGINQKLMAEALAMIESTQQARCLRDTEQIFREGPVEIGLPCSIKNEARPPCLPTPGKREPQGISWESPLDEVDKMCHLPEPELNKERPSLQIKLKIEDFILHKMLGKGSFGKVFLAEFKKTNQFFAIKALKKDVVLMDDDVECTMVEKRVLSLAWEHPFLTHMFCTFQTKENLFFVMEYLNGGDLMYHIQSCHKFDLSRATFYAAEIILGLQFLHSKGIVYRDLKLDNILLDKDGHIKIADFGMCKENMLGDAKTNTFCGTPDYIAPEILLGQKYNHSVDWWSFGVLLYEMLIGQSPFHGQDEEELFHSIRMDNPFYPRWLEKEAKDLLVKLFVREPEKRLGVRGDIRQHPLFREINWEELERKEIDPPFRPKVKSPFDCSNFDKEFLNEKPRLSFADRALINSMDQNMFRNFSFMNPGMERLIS

[50] = target: Serine/threonine-protein kinase D3 (Homo sapiens, UniProt O94806);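 further: determined within a kinase panel screen, with PRKCN as the panel member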
[51] = target: Macrophage-stimulating protein receptor (Homo sapiens, UniProt Q04912); assay: Navigating the Kinome. Panel member name: MST1R
[52] = target: G protein-coupled receptor kinase 5 (Homo sapiens, UniProt P34947); assay: Navigating the Kinome. Panel member name: GPRK5
[53] = target: Cyclin-dependent kinase 8 (Homo sapiens, UniProt P49336); assay: Navigating the Kinome. Panel member name: CDK8
[54] = target: Mitogen-activated protein kinase kinase kinase kinase 4 (Homo sapiens, UniProt O95819)
[55] = target: 5'-AMP-activated protein kinase catalytic subunit alpha-1 (Homo sapiens, UniProt Q13131)
[56] = target: Dual specificity mitogen-activated protein kinase kinase 2 (Homo sapiens, UniProt P36507); assay: Navigating the Kinome. Panel member name: MAP2K2
[57] = target: Death-associated protein kinase 3 (Homo sapiens, UniProt O43293);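 further: measured as one member of a kinome-wide profiling panel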
[58] = target: Melanin-concentrating hormone receptor 1 (Homo sapiens, UniProt Q99705); assay: Late-stage fluorescence-based counterscreen for antagonists of the G-protein coupled receptor 7 (GPR7): cell-based dose response assay to identify antagonists of the melanin-concentrating hormone receptor 1 (MCHR1) Set 6.
[59] = target: Neuropeptides B/W receptor type 1 (Homo sapiens, UniProt P48145); assay: human NPBW1 receptor blockade, IC50 – cell-based, fluorescence, dose response, set 6, late-stage follow-up (AID 588583)

- EC50 [1]: 9.48 µM (active) and 8.03 µM (active)
- EC50 [2]: 8.95 µM (active)
- EC50 [3]: 2.25 µM (active)
SMILES: CC(Cc1c[nH]c2ccccc12)C(=O)O (stereo not drawn)
- EC50 [4]: > 99 µM (inactive) and > 100 µM (inactive)

- Ki [5]: 3.16 µM (active)
- Ki [6]: 1.58 µM (active)
- Ki [7]: > 2.51 µM (inactive)
- Ki [8]: > 5.01 µM (inactive)
- Ki [9]: > 6.31 µM (inactive)
- Ki [10]: > 6.31 µM (inactive)
- Ki [11]: > 6.31 µM (inactive)
- Ki [12]: > 3.16 µM (inactive)
- Ki [13]: > 3.16 µM (inactive)
- Ki [14]: > 3.98 µM (inactive)
- Ki (Aurora kinase B): > 3.98 µM (inactive)
- Ki [15]: > 3.98 µM (inactive)
- Ki [16]: > 2.51 µM (inactive)
- Ki [17]: > 3.16 µM (inactive)
- Ki [18]: > 3.98 µM (inactive)
- Ki [19]: > 2.51 µM (inactive)
- Ki [20]: 0.158 µM (active)
- Ki [21]: > 5.01 µM (inactive)
- Ki [22]: 2.51 µM (active)
- Ki [23]: > 3.16 µM (inactive)
- Ki [24]: > 1.58 µM (inactive)
- Ki (Aurora kinase A): > 1.58 µM (inactive)
- Ki (Activin receptor type-1): 1.58 µM (active)
- Ki [25]: 0.0398 µM (active)
- Ki [26]: > 3.16 µM (inactive)
- Ki [27]: > 3.98 µM (inactive)
- Ki [28]: > 5.01 µM (inactive)
- Ki [29]: > 2 µM (inactive)
- Ki [30]: > 2.51 µM (inactive)
- Ki [31]: > 6.31 µM (inactive)
- Ki [32]: > 3.98 µM (inactive)
- Ki [33]: > 2.51 µM (inactive)
- Ki [34]: > 3.98 µM (inactive)
- Ki [35]: 0.0631 µM (active)
- Ki [36]: > 2.51 µM (inactive)
- Ki [37]: > 2.51 µM (inactive)
- Ki [38]: > 2.51 µM (inactive)
- Ki [39]: > 7.94 µM (inactive)
- Ki [40]: 2 µM (active)
- Ki [41]: > 3.16 µM (inactive)
- Ki [42]: > 3.98 µM (inactive)
- Ki [43]: > 1.26 µM (inactive)
- Ki [44]: > 3.16 µM (inactive)
- Ki [45]: > 3.98 µM (inactive)
- Ki [46]: > 3.16 µM (inactive)
- Ki [47]: > 2.51 µM (inactive)
- Ki [48]: > 6.31 µM (inactive)
- Ki (Activated CDC42 kinase 1): > 3.98 µM (inactive)
- Ki [49]: > 2.51 µM (inactive)
- Ki [50]: > 3.98 µM (inactive)
- Ki [51]: > 3.98 µM (inactive)
- Ki [52]: > 3.98 µM (inactive)
- Ki [53]: 0.0631 µM (active)
- Ki [54]: > 5.01 µM (inactive)
- Ki [55]: > 3.16 µM (inactive)
- Ki [56]: > 3.98 µM (inactive)
SMILES: O=C(Nc1cccc(C(F)(F)F)n1)Nc1ccnc2ccc(Cl)cc12
- Ki [57]: 5.01 µM (active)

- IC50 [58]: 0.417 µM (active)
- IC50 [59]: 0.417 µM (active)
SMILES: N#CC(c1ccsc1)c1c(Br)cnn(Cc2cccc3ccccc23)c1=O (stereo not drawn)
